From ChEMBL document CHEMBL1817579, “Activation and inhibition of CTP synthase from Trypanosoma brucei, the causative agent of African sleeping sickness” (Bioorg Med Chem Lett, 2011)
The source made the active and inactive calls. The calls are words filed in the database; no cut-off is given here.

Tests used:
Escherichia coli [1] = test: Activation of Escherichia coli CTPS assessed as Gln-dependent CTP formation at < 0.15 mM by continuous spectrophotometric assay
Escherichia coli [2] = test: Inhibition of Escherichia coli CTPS assessed as Gln-dependent CTP formation at > 0.15 mM by continuous spectrophotometric assay
Trypanosoma brucei [3] = test: Activation of N-terminal His6-tagged Trypanosoma brucei CTPS assessed as Gln-dependent CTP formation by continuous spectrophotometric assay
Trypanosoma brucei [4] = test: Inhibition of N-terminal His6-tagged Trypanosoma brucei CTPS assessed as Gln-dependent CTP formation at by continuous spectrophotometric assay
[5] = Inhibition of N-terminal His6-tagged Trypanosoma brucei CTPS assessed as NH3-dependent CTP formation by continuous spectrophotometric assay
Trypanosoma brucei [6] = test: Activation of N-terminal His6-tagged Trypanosoma brucei CTPS assessed as Gln-dependent CTP formation at <0.2 mM by continuous spectrophotometric assay
Trypanosoma brucei [7] = test: Inhibition of N-terminal His6-tagged Trypanosoma brucei CTPS assessed as Gln-dependent CTP formation at > 0.2 mM by continuous spectrophotometric assay
[8] = Activity of Escherichia coli CTPS assessed as conversion of UTP to CTP at pH 7.3 by continuous spectrophotometric assay
[9] = Activity of N-terminal His6-tagged Trypanosoma brucei CTPS assessed as conversion of UTP to CTP at pH 7.3 by continuous spectrophotometric assay
Trypanosoma brucei [10] = details: 5.67 mM
Description: Inhibition of N-terminal His6-tagged Trypanosoma brucei CTPS assessed as conversion of UTP to CTP at 5.67 mM by continuous spectrophotometric assay

Trypanosoma brucei [11] = details: 494.32 mM
Description: Inhibition of N-terminal His6-tagged Trypanosoma brucei CTPS assessed as conversion of UTP to CTP at 494.32 mM at pH 7.3 by continuous spectrophotometric assay

Escherichia coli [12] = test system: Escherichia coli
Trypanosoma brucei [13] = test system: Trypanosoma brucei
Description: Ratio of Kcat to Km for N-terminal His6-tagged Trypanosoma brucei CTPS assessed as conversion of UTP to CTP by continuous spectrophotometric assay

Escherichia coli [14] = test system: Escherichia coli; remark: listed apart in the source
Description: Ratio of Kcat to Km for Escherichia coli CTPS assessed as conversion of UTP to CTP by continuous spectrophotometric assay

Trypanosoma brucei [15] = test system: Trypanosoma brucei; remark: listed apart in the source

Nc1nc(=O)c2ncn([C@@H]3O[C@H](COP(=O)(O)OP(=O)(O)OP(=O)(O)O)[C@@H](O)C3O)c2[nH]1 (single isomer, unassigned) [GTP]
kcat (Escherichia coli [1]): 10.6 s⁻¹
inhibition (Escherichia coli [2]): Active
KA (Trypanosoma brucei [3]): 57 µM
Kact (Trypanosoma brucei [3]): 0.87 s⁻¹
inhibition (Trypanosoma brucei [4]): Active
IC50 [5]: 460 µM
Ki [5]: 272 µM
Activity (Trypanosoma brucei [6]): Active
inhibition (Trypanosoma brucei [7]): Active

N [AMMONIA SOLUTION, STRONG]
Ki [8]: 1400 µM
Ki [9]: 5700 µM
inhibition (Trypanosoma brucei [10]): Active
inhibition (Trypanosoma brucei [11]): Active
Ks (Escherichia coli [12]): 1.1 mM
kcat (Escherichia coli [12]): 4.4 s⁻¹
kcat/Km (Trypanosoma brucei [13]): 727 M⁻¹ s⁻¹
kcat/Km (Escherichia coli [14]): 4 ×10³ /M/s
Ks (Trypanosoma brucei [15]): 2.2 mM
kcat (Trypanosoma brucei [15]): 1.6 s⁻¹

Cn1c(=O)c2c(ncn2C)n(C)c1=O [CAFFEINE]
IC50 [5]: 480 µM

Nc1nc2c(ncn2[C@@H]2O[C@H](CO)[C@@H](O)[C@H]2O)c(=O)[nH]1 [GUANOSINE]
IC50 [5]: 380 µM

Oc1nc(O)c2nc(O)[nH]c2n1 [URIC ACID]
IC50 [5]: 100 µM
